Measured values published in paper PMC7004565, “Nucleotide inhibition of the pancreatic ATP-sensitive K^+ channel explored with patch-clamp fluorometry” (eLife, 2020).
Where “and” joins values, the source holds several entries; their conditions need not be identical. Equal entries are not always repeated. Where two headings read alike, the source gives them in different places.

Assays:
Kir6.2*-GFP + SUR-K205A = target: T1, Kir6.2*-GFP + SUR-K205A (Homo sapiens, UniProt Q14654); assay: Bayesian MWC-type model fits to combined patch-clamp fluorometry data; format: biochemical; conditions: for Kd: read-out: KA (intrinsic binding affinity to the closed state) (converted)
T1 construct: ANAP labelling is specific and only full-length Kir6.2 is expressed at the cell membrane; expressed in transfected cells; host or cells: HEK-293T
Source text: (§1) Our simultaneous binding and current measurements were well fit with a Monod-Wyman-Changeux (MWC)-type model (Figure 2D,E; [Monod et al., 1965]) which has been previously proposed to explain KATP channel inhibition ([Enkvetchakul and Nichols, 2003]; [Craig et al., 2008]; [Vedovato et al., 2015]). In our MWC-type model, each ligand binding event ( KA ) is independent and each bound ligand favours the closed state by the same factor ( D ). Simultaneous measurement of binding (fluorescence) and gating (current) allowed us to obtain well constrained fits to our model. To obtain free parameter ( L , KA , D ) estimates and verify that each parameter was well and uniquely determined, we employed a Bayesian Markov chain Monte Carlo (MCMC) method previously employed by [Hines et al. (2014)]. Using this approach, we constructed posterior probability distributions for the free parameters of our MWC-type model (Figure 2F, Table 3). […] Our estimate of L was quite low and broadly distributed. We repeated our fits with L fixed to a value consistent with previous single channel measurements (0.8, Popen=0.45; [John et al., 1998]; [Enkvetchakul et al., 2000]; [Ribalet et al., 2006]). This had only a very small effect on our estimates of D and KA (Figure 2—figure supplement 1). The broad distribution of L in our fit may represent current rundown which occurs during our patch-clamp recordings and is expected to affect the open-closed equilibrium.
(§2) In addition to the full MWC-type model we considered alternate models (Figure 2—figure supplement 2). These included a model in which only the first binding event influences the open-closed equilibrium of the channel (single-binding model; Figure 2—figure supplement 2B, Table 3), and an MWC-style model with an additional parameter C to allow for direct negative cooperativity between binding sites (negative cooperativity model; Figure 2—figure supplement 2C, Table 3). The single-binding model yielded very similar parameter estimates to our full MWC-type model (Figure 2—figure supplement 2D, Table 3). This is a consequence of D being so low that even in the MWC-type model most channels are closed when only a single nucleotide is bound. The cooperative model improved our fits, but not enough to justify the inclusion of an additional free parameter (see Discussion).
(§3) The MWC-type models considered (Figure 2 and Figure 2—figure supplement 2) were formulated as follows:(3) F/Fmax=KA[TNPATP](1+KA[TNPATP])^3+LDKA[TNPATP](1+DKA[TNPATP])^3/(1+KA[TNPATP])^4+L(1+DKA[TNPATP])^4 (4) open channels/total channels=L(1+DKA[TNPATP])^4/(1+KA[TNPATP])^4+L(1+DKA[TNPATP])^4
(§4) The first was similar to the MWC-type model, except that the channels close after one molecule of TNP-ATP binding with subsequent binding events having no effect.(7) F/Fmax=LDKA[TNPATP](1+3KA[TNPATP]+3KA2[TNPATP]^2+KA3[TNPATP]^3)+KA[TNPATP](1+KA[TNPATP])^3/L(1+4DKA[TNPATP]+6DKA2[TNPATP]^2+4DKA3[TNPATP]^3+DKA4[TNPATP]^4)+(1+KA[TNPATP])^4 (8) I/Imax=L(1+4DKA[TNPATP]+6DKA2[TNPATP]^2+4DKA3[TNPATP]^3+DKA4[TNPATP]^4)/L(1+4DKA[TNPATP]+6DKA2[TNPATP]^2+4DKA3[TNPATP]^3+DKA4[TNPATP]^4)+(1+KA[TNPATP])^4⋅1+L/L
(§5) The second alternate model was the same as the full MWC model, but with an additional term C describing binding cooperativity between Kir6.2 subunits.(9) F/Fmax=LDKA[TNPATP](1+3CDKA[TNPATP]+3C^2D^2KA2[TNPATP]^2+C^3D^3KA3[TNPATP]^3)+KA[TNPATP](1+3CKA[TNPATP])+3C^2KA2[TNPATP]^2+C^3KA3[TNPATP]^3)/L(1+4DKA[TNPATP]+6CD^2KA2[TNPATP]^2+4C^2D^3KA3[TNPATP]^3+C^3D^4KA4[TNPATP]^4)+1+4KA[TNPATP]+6CKA2[TNPATP]^2+4C^2KA3[TNPATP]^3+C^3KA4[TNPATP]^4 (10) I/Imax=L(1+4DKA[TNPATP]+6CD^2KA2[TNPATP]^2+4C^2D^3KA3[TNPATP]^3+C^3D^4KA4[TNPATP]^4)/L(1+4DKA[TNPATP]+6CD^2KA2[TNPATP]^2+4C^2D^3KA3[TNPATP]^3+C^3D^4KA4[TNPATP]^4)+1+4KA[TNPATP]+6C^2KA2[TNPATP]^2+4C^2KA3[TNPATP]^3+C^3KA4[TNPATP]^4⋅1+L/L […]

Kir6.2*-GFP + SUR-K205E = target: T2, Kir6.2*-GFP + SUR-K205E (Homo sapiens, UniProt Q14654); assay: as above; format: biochemical; conditions: for Kd: read-out: KA (intrinsic binding affinity to the closed state) (converted)
T2 construct: ANAP labelling is specific and only full-length Kir6.2 is expressed at the cell membrane; expressed in transfected cells; host or cells: HEK-293T
Source text: as §1, §2, §3, §4, §5

Kir6.2-GFP + SUR1 = Kir6.2-GFP + SUR1 (Homo sapiens, UniProt Q14654); assay: ANAP fluorescence quenching in excised patches (patch-clamp fluorometry); format: binding; design: full length, fully ANAP-labelled Kir6.2 protein was produced and successfully trafficked to the membrane in the presence of SUR1; expressed in transfected cells; host or cells: HEK-293T; conditions: excised patches (PCF), Hill fit
Protocol: Currents were measured as described above.
ANAP bleaching was corrected as for the unroofed binding experiments with Equation 1 (Figure 2—figure supplement 3A). Due to the lower signal-to-noise ratio for PCF compared to the unroofed membranes, we performed experiments from both high-to-low and low-to-high TNP-ATP concentrations to minimise artifacts from our bleaching corrections.

[1] = Full MWC model, median estimate
[2] = Single-site (single-binding) model

T2 sequence (Q14654 whole entry, stated change not applied): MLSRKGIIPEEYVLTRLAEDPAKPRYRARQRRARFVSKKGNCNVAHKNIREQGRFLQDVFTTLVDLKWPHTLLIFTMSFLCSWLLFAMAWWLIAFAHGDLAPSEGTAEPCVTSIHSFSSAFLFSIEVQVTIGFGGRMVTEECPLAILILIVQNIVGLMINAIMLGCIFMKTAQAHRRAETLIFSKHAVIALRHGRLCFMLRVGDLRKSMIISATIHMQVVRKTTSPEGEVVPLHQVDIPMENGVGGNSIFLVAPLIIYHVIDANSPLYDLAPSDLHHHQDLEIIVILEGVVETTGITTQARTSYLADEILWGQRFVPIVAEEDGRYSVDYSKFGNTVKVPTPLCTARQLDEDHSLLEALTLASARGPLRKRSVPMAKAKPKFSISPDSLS
T2 sequence (Q09428 whole entry K205E partner): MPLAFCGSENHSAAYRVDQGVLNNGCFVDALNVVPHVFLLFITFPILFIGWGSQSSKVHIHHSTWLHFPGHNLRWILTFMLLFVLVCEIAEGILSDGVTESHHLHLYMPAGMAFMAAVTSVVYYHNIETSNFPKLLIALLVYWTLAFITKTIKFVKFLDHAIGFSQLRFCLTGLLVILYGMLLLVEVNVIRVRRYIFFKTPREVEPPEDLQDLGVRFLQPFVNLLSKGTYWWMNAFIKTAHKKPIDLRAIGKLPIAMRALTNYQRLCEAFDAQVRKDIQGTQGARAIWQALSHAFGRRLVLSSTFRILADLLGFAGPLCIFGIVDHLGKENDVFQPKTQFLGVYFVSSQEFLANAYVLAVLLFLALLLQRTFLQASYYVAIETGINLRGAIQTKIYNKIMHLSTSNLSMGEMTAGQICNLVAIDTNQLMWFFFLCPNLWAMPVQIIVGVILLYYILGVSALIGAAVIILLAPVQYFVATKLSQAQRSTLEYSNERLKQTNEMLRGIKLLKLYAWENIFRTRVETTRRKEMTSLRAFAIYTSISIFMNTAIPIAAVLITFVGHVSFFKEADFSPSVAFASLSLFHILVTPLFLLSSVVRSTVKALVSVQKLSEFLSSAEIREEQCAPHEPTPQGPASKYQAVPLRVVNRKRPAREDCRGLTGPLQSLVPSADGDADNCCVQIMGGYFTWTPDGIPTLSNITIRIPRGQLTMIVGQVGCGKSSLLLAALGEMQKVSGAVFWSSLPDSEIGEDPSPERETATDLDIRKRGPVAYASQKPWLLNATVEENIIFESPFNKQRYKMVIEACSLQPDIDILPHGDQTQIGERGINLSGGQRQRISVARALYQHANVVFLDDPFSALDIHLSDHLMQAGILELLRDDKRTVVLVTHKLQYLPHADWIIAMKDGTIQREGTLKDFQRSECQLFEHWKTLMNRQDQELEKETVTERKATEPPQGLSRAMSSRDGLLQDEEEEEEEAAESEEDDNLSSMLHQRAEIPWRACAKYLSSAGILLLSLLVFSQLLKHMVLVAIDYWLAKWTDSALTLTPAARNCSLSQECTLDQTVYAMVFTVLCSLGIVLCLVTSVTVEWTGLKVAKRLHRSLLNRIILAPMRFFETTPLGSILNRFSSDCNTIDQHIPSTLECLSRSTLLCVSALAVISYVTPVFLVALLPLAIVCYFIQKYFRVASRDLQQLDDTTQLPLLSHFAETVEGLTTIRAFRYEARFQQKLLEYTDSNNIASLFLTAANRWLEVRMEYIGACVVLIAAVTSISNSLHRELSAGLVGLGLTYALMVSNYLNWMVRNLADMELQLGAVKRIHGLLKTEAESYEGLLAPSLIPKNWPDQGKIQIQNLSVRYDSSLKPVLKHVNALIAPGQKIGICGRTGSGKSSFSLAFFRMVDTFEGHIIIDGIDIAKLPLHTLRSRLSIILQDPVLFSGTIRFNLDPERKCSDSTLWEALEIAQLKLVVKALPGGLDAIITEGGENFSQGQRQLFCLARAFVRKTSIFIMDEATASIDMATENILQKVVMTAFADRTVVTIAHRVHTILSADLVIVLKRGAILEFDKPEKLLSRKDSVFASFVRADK
Kir6.2-GFP + SUR1, sequence (Q14654 whole entry): as the sequence (Q14654 whole entry, stated change not applied) above
Kir6.2-GFP + SUR1, sequence (Q09428 whole entry partner): as the sequence (Q09428 whole entry K205E partner) above, with E205K counted along it
T1 sequence (Q14654 whole entry, stated change not applied): as the sequence (Q14654 whole entry, stated change not applied) above
T1 sequence (Q09428 whole entry K205A partner): as the sequence (Q09428 whole entry K205E partner) above, with E205A counted along it

With `Nc1ncnc2c1ncn2[C@@H]1O[C@H](COP(=O)(O)OP(=O)(O)OP(=O)(O)O)[C@H]2OC3(O[C@H]21)C([N+](=O)[O-])=CC(=[N+]([O-])[O-])C=C3[N+](=O)[O-]` (stereo partly shown) [TNP-ATP, trinitrophenyl-ATP] the “D (factor by which nucleotide binding favours channel closure)” value (Kir6.2*-GFP + SUR-K205A; [1]) was 0.55, the “L (unliganded open-closed equilibrium constant)” value (Kir6.2*-GFP + SUR-K205A; [1]) was −0.37 log10 and the Kd (Kir6.2*-GFP + SUR-K205A; [1]) was 174 µM. For the same compound, the “C (binding cooperativity between Kir6.2 subunits)” value (Kir6.2*-GFP + SUR-K205A; Negative cooperativity model) was 0.35, the “D (factor by which nucleotide binding favours channel closure)” value (Kir6.2*-GFP + SUR-K205A; Negative cooperativity model) was 0.52 and the “L (unliganded open-closed equilibrium constant)” value (Kir6.2*-GFP + SUR-K205A; Negative cooperativity model) was −0.16 log10. For the same compound, the Kd (Kir6.2*-GFP + SUR-K205A; Negative cooperativity model) was 79.4 µM, the “D (factor by which nucleotide binding favours channel closure)” value (Kir6.2*-GFP + SUR-K205A; [2]) was 0.18 and the “L (unliganded open-closed equilibrium constant)” value (Kir6.2*-GFP + SUR-K205A; [2]) was −0.25 log10. For the same compound, the Kd (Kir6.2*-GFP + SUR-K205A; [2]) was 240 µM, the “D (factor by which nucleotide binding favours channel closure)” value (Kir6.2*-GFP + SUR-K205E; [1]) was 0.62 and the “L (unliganded open-closed equilibrium constant)” value (Kir6.2*-GFP + SUR-K205E; [1]) was −0.18 log10. For the same compound, the Kd (Kir6.2*-GFP + SUR-K205E; [1]) was 398 µM, the “C (binding cooperativity between Kir6.2 subunits)” value (Kir6.2*-GFP + SUR-K205E; Negative cooperativity model) was 0.45 and the “D (factor by which nucleotide binding favours channel closure)” value (Kir6.2*-GFP + SUR-K205E; Negative cooperativity model) was 0.58. For the same compound, the Kd (Kir6.2*-GFP + SUR-K205E; Negative cooperativity model) was 195 µM, the “D (factor by which nucleotide binding favours channel closure)” value (Kir6.2*-GFP + SUR-K205E; [2]) was 0.30 and the “L (unliganded open-closed equilibrium constant)” value (Kir6.2*-GFP + SUR-K205E; [2]) was −0.19 log10. For the same compound, the Kd (Kir6.2*-GFP + SUR-K205E; [2]) was 490 µM, the “h (Hill coefficient) fluorescence quenching” value (Kir6.2-GFP + SUR1) was 0.87 and the Emax (Kir6.2-GFP + SUR1; fraction) was 100%. The EC50 (Kir6.2-GFP + SUR1; n = 9) was 77.7 µM and 77.6 µM.
